According to patent US11446287B2, “Compounds and methods for EP300 or CBP modulation and indications therefor” (Opna Immuno-Oncology SA, priority 2019, dated 2022):

Each molecule was assayed against T1, Recombinant human BRD4 containing dual bromodomains (BRD4-BD12 (1-477)) (Homo sapiens, UniProt O60885) (assay: BRD4 Alphascreen binding assay).
T1 construct: Recombinant human BRD4 containing dual bromodomains (BRD4-BD12 (1-477)); made in house; host or cells: E. coli BL21-CodonPlus (DE3), modified pET vector
Procedure, shortened: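 AlphaScreen proximity between Ni-chelate-bound BRD4-BD12 (1-477) and streptavidin-captured H4 K5/K8/K12/K16-acetyl peptide measured after 1 h room-temperature compound incubation and 30 min with 7.5 μg/ml beads. Buffer: 50 mM HEPES pH 7.5, 50 mM NaCl, 0.01% BSA, 0.01% Triton X-100; data plate-normalized and four-parameter fit for IC50.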
`Cc1noc(C)c1-c1cnc2c(c1)c(-c1cnn(C(C)(C)C(=O)O)c1)cn2C(c1ccccn1)C1CCCC1` (stereo not shown) [P-0035, 2-(4-(1-(cyclopentyl(pyridin-2-yl)methyl)-5-(3,5-dimethylisoxazol-4-yl)-1H-pyrrolo[2,3-b]pyridin-3-yl)-1H-pyrazol-1-yl)-2-methylpropanoic acid] was tested, and the IC50 was 1 to 8 µM. `Cc1noc(C)c1-c1cnc2c(c1)c(-c1cnn(CC(=O)O)c1)cn2C(c1ccccn1)C1CCCC1` (stereo not shown) [P-0036, 2-(4-(1-(cyclopentyl(pyridin-2-yl)methyl)-5-(3,5-dimethylisoxazol-4-yl)-1H-pyrrolo[2,3-b]pyridin-3-yl)-1H-pyrazol-1-yl)acetic acid] was tested, and the IC50 was 1 to 8 µM. In the case of `Cc1noc(C)c1-c1cnc2c(c1)c(-c1cnn(CC(C)(C)O)c1)cn2C(c1ccccn1)C1CCCC1` (stereo not shown) [P-0037, 1-(4-(1-(cyclopentyl(pyridin-2-yl)methyl)-5-(3,5-dimethylisoxazol-4-yl)-1H-pyrrolo[2,3-b]pyridin-3-yl)-1H-pyrazol-1-yl)-2-methylpropan-2-ol], the IC50 is reported as 1 to 8 µM. `Cc1noc(C)c1-c1cnc2c(c1)c(-c1ccc(C(=O)O)c(Cl)c1)cn2C(c1ccccn1)C1CCCC1` (stereo not shown) [P-0038, 2-chloro-4-(1-(cyclopentyl(pyridin-2-yl)methyl)-5-(3,5-dimethylisoxazol-4-yl)-1H-pyrrolo[2,3-b]pyridin-3-yl)benzoic acid] showed an IC50 of 1 to 8 µM. For `COC(=O)c1cc(-c2cn(C(c3ccccn3)C3CCCC3)c3ncc(-c4c(C)noc4C)cc23)ccn1` (stereo not shown) [P-0040, methyl 4-(1-(cyclopentyl(pyridin-2-yl)methyl)-5-(3,5-dimethylisoxazol-4-yl)-1H-pyrrolo[2,3-b]pyridin-3-yl)picolinate], the IC50 was 1 to 8 µM. With `Cc1noc(C)c1-c1cnc2c(c1)c(-c1ccnc(C(=O)O)c1)cn2C(C1CC1)C1CC1` [P-0041, 4-(1-(dicyclopropylmethyl)-5-(3,5-dimethylisoxazol-4-yl)-1H-pyrrolo[2,3-b]pyridin-3-yl)picolinic acid] the IC50 was 0.0001 to 1 µM. For `Cc1noc(C)c1-c1cnc2c(c1)c(-c1ccnc(C(=O)O)c1)cn2Cc1ccccc1` [P-0042, 4-(1-benzyl-5-(3,5-dimethylisoxazol-4-yl)-1H-pyrrolo[2,3-b]pyridin-3-yl)picolinic acid], the IC50 was 0.0001 to 1 µM. For `Cc1noc(C)c1-c1cnc2c(c1)c(-c1ccnc(C(=O)O)c1)cn2C(c1ccccn1)C1CCC1` (stereo not shown) [P-0043, 4-(1-(cyclobutyl(pyridin-2-yl)methyl)-5-(3,5-dimethylisoxazol-4-yl)-1H-pyrrolo[2,3-b]pyridin-3-yl)picolinic acid], the IC50 was 1 to 8 µM. `Cc1noc(C)c1-c1cnc2c(c1)c(-c1ccnc(C(=O)O)c1)cn2Cc1ccccn1` [P-0044, 4-(5-(3,5-dimethylisoxazol-4-yl)-1-(pyridin-2-ylmethyl)-1H-pyrrolo[2,3-b]pyridin-3-yl)picolinic acid] showed an IC50 of 0.0001 to 1 µM. Molecule `Cc1noc(C)c1-c1cnc2c(c1)c(-c1ccnc(C(=O)O)c1)cn2CC1CC1` [P-0045, 4-(1-(cyclopropylmethyl)-5-(3,5-dimethylisoxazol-4-yl)-1H-pyrrolo[2,3-b]pyridin-3-yl)picolinic acid] has an IC50 of 0.0001 to 1 µM. Work on `COC(=O)c1cc(-c2cn(C(c3ccccn3)C3CCC3)c3ncc(-c4c(C)noc4C)cc23)ccn1` (stereo not shown) [P-0046, methyl 4-(1-(cyclobutyl(pyridin-2-yl)methyl)-5-(3,5-dimethylisoxazol-4-yl)-1H-pyrrolo[2,3-b]pyridin-3-yl)picolinate] yielded an IC50 of 8 to 1000 µM. Work on `COc1cc(C(=O)O)ccc1-c1cn([C@@H](C)c2ccccn2)c2ncc(-c3c(C)noc3C)cc12` [P-0047, (S)-4-(5-(3,5-dimethylisoxazol-4-yl)-1-(1-(pyridin-2-yl)ethyl)-1H-pyrrolo[2,3-b]pyridin-3-yl)-3-methoxybenzoic acid] yielded an IC50 of 1 to 8 µM. Work on `Cc1noc(C)c1-c1cnc2c(c1)c(-c1cccc(C(=O)O)c1)cn2Cc1ccccc1` [P-0048, 3-(1-benzyl-5-(3,5-dimethylisoxazol-4-yl)-1H-pyrrolo[2,3-b]pyridin-3-yl)benzoic acid] yielded an IC50 of 1 to 8 µM.
